Data on 17 compounds can be found in patent publication US20260132132A1, “3A,4,5,6-TETRAHYDRO-1 H-PYRAZOLO[3,4-C]PYRIDIN-7(7AH)-ONE DERIVATIVES AS FACTOR XIIA INHIBITORS” (KALVISTA PHARMACEUTICALS LIMITED, priority 2022, published 2026).

Common to all, as to assay type: biochemical
Assay [1] has as its target T1, Human Factor XIIa (hFXIIa) (Homo sapiens, UniProt P00748).
T1 construct: purchased Enzyme Research Laboratories
T1 sequence (P00748 373-615 limits assumed): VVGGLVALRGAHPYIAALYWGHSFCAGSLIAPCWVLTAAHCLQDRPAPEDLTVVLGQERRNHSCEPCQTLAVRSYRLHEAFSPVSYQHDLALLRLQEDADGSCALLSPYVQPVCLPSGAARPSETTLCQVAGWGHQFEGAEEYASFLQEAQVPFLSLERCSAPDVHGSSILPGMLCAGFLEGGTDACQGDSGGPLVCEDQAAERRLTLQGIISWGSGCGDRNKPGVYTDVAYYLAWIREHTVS
T1 sequence (P00748 20-372 partner limits assumed): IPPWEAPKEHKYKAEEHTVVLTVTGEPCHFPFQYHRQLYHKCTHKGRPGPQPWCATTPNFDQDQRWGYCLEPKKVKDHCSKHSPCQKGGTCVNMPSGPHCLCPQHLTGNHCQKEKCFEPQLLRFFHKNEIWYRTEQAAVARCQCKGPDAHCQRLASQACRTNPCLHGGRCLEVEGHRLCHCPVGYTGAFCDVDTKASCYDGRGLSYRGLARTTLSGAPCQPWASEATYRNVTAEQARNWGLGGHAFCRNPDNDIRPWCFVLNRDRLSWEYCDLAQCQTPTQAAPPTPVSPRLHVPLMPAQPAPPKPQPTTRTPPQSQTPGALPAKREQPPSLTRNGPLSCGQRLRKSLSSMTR
Put plainly: Determination of Human Factor XIIa (hFXIIa) inhibition, fluorogenic substrate IC50 assay. Conditions: fluorogenic substrate H-DPro-Phe-Arg-AFC at Km, 25° C., read-out: Human FXIIa IC50. As for the experimental part: Determination of Human Factor XIIa (hFXIIa) inhibition
The Km for the cleavage of the substrate by hFXIIa was determined by standard transformation of the Michaelis-Menten equation, with subsequent inhibition assays performed at substrate Km concentration.

In another assay the target is FXa (Homo sapiens, UniProt P00742). Put plainly: Related protease inhibition: FXa, fluorogenic substrate. The note with it: fluorogenic substrate at Km, 25° C., H1-H3 = % activity at 40 μM; for activity at 40 µM: read-out: IC50 (human FXa) nM. As for the experimental part:
(§1) Human serine protease enzyme Plasma Kallikrein, KLK1, FXa, Plasmin, Thrombin and Trypsin were assayed for enzymatic activity using an appropriate fluorogenic substrate at Km concentration, FXIa at fixed substrate concentration of 100 μM and various concentrations of the test compound.

The next assay concerns the target Thrombin (Homo sapiens, UniProt P00734). Description: Related protease inhibition: Thrombin, fluorogenic substrate. The note with it: fluorogenic substrate at Km, 25° C., H1-H3 = % activity at 40 μM; for activity at 40 µM: read-out: IC50 (human thrombin) nM. As for the experimental part: as §1

FXa, sequence (P00742 235-488 limits assumed): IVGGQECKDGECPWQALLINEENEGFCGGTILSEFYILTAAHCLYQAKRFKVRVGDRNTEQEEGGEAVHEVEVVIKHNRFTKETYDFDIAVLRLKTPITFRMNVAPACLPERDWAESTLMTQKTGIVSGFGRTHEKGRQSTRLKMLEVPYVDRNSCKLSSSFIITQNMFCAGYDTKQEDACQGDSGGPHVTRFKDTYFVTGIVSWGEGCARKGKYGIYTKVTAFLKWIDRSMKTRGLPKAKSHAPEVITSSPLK
FXa, sequence (P00742 41-179 partner limits assumed): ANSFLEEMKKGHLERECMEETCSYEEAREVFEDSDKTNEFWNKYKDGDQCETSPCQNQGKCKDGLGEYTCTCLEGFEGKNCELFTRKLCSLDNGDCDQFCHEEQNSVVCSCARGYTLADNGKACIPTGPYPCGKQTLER

Broadly, the IC50 is the concentration that gives 50% inhibition. On to `CCNC(=O)c1nn(-c2cccc(Cl)c2)c2c1CCN(c1cccc(N3CCN(C)C(=O)C3)c1)C2=O` [Example 1432, 1-(3-chlorophenyl)-N-ethyl-6-(3-(4-methyl-3-oxopiperazin-1-yl)phenyl)-7-oxo-4,5,6,7-tetrahydro-1H-pyrazolo[3,4-c]pyridine-3-carboxamide], for which, in assay [1], the half-inhibitory concentration (IC50) lay within 1 to 3 µM. The values for the activity at 40 µM at FXa and on Thrombin were 20 to 80% and less than 20%, respectively.

Take `CN1CCc2ccc(N3CCc4c(C(=O)NC5CCNCC5(F)F)nn(-c5cccc(Cl)c5)c4C3=O)cc2C1=O` (stereo not drawn) [Example 1424, 1-(3-chlorophenyl)-N-(3,3-difluoropiperidin-4-yl)-6-(2-methyl-1-oxo-1,2,3,4-tetrahydroisoquinolin-7-yl)-7-oxo-4,5,6,7-tetrahydro-1H-pyrazolo[3,4-c]pyridine-3-carboxamide]: the IC50 in assay [1] was in the range of 0.1 to 0.3 µM. Moreover, the activity at 40 µM at FXa was 20 to 80%; at Thrombin, greater than 80%.

Consider `CCNC(=O)c1nn(-c2cc(Cl)cc(COC)c2)c2c1CCN(c1ccc3c(c1)C(=O)N(C)CC3)C2=O` [Example 2058, 1-(3-chloro-5-(methoxymethyl)phenyl)-N-ethyl-6-(2-methyl-1-oxo-1,2,3,4-tetrahydroisoquinolin-7-yl)-7-oxo-4,5,6,7-tetrahydro-1H-pyrazolo[3,4-c]pyridine-3-carboxamide], for which the IC50 in assay [1] was 3 to 10 µM; against FXa, greater than 40 µM; on Thrombin, greater than 40 µM.

As for `CN1CCOc2ccc(N3CCc4c(C(=O)NC56CC(O)(C5)C6)nn(-c5cccc(Cl)c5F)c4C3=O)cc2C1=O` [Example 2050, 1-(3-chloro-2-fluorophenyl)-N-(3-hydroxybicyclo[1.1.1]pentan-1-yl)-6-(4-methyl-5-oxo-2,3,4,5-tetrahydrobenzo[f][1,4]oxazepin-7-yl)-7-oxo-4,5,6,7-tetrahydro-1H-pyrazolo[3,4-c]pyridine-3-carboxamide], the IC50 in assay [1] lay in the range of 0.01 to 0.1 µM. For the same compound, the activity at 40 µM on FXa and on Thrombin was 20 to 80% throughout.

As to `CCNC(=O)c1nn(-c2cccc(Cl)c2)c2c1CCN(c1ccc3c(c1)NCCO3)C2=O` [Example 1422, 1-(3-chlorophenyl)-6-(3,4-dihydro-2H-benzo[b][1,4]oxazin-6-yl)-N-ethyl-7-oxo-4,5,6,7-tetrahydro-1H-pyrazolo[3,4-c]pyridine-3-carboxamide], the IC50 in assay [1] was 10 to 40 µM. Besides, the activity at 40 µM on FXa and on Thrombin was 20 to 80% in each case.

For the compound `CCNC(=O)c1nn(-c2cccc(Cl)c2)c2c1CCN(c1cccc(N3C4CCC3CN(C)C4)c1)C2=O` [Example 1436, 1-(3-chlorophenyl)-N-ethyl-6-(3-(3-methyl-3,8-diazabicyclo[3.2.1]octan-8-yl)phenyl)-7-oxo-4,5,6,7-tetrahydro-1H-pyrazolo[3,4-c]pyridine-3-carboxamide], in assay [1], the IC50 is 3 to 10 µM. Moreover, the activity at 40 µM at FXa and on Thrombin was greater than 80% in each case.

In the case of `Cc1ccc(CNC(=O)c2nn(-c3cccc(Cl)c3F)c3c2CCN(c2ccc4c(c2)C(=O)N(C)CC4)C3=O)cn1` [Example 2044, 1-(3-chloro-2-fluorophenyl)-6-(2-methyl-1-oxo-1,2,3,4-tetrahydroisoquinolin-7-yl)-N-((6-methylpyridin-3-yl)methyl)-7-oxo-4,5,6,7-tetrahydro-1H-pyrazolo[3,4-c]pyridine-3-carboxamide], the half-inhibitory concentration (IC50) in assay [1] lay within 0.01 to 0.1 µM. For the same compound, the activity at 40 µM on FXa was greater than 80%; at Thrombin it was 20 to 80%.

In the case of `CN1CCc2ccc(N3CCc4c(C(=O)NCC5(N)CC5)nn(-c5cccc(Cl)c5)c4C3=O)cc2C1=O` [Example 1427, N-((1-aminocyclopropyl)methyl)-1-(3-chlorophenyl)-6-(2-methyl-1-oxo-1,2,3,4-tetrahydroisoquinolin-7-yl)-7-oxo-4,5,6,7-tetrahydro-1H-pyrazolo[3,4-c]pyridine-3-carboxamide], the IC50 in assay [1] fell in the range of 0.3 to 1 µM. Besides, the activity at 40 µM at FXa and on Thrombin was greater than 80% throughout.

With `CCNC(=O)c1nn(-c2cccc(Cl)c2)c2c1CCN(c1cc(N3C(=O)CC4CC43)ccc1F)C2=O` (stereo not drawn) [Example 1433, 1-(3-chlorophenyl)-N-ethyl-6-(2-fluoro-5-(3-oxo-2-azabicyclo[3.1.0]hexan-2-yl)phenyl)-7-oxo-4,5,6,7-tetrahydro-1H-pyrazolo[3,4-c]pyridine-3-carboxamide], the IC50 in assay [1] fell in the range of 0.3 to 1 µM. The activity at 40 µM at FXa was 20 to 80%; at Thrombin it was greater than 80%.

Take `Cc1cc(CNC(=O)c2nn(-c3cccc(Cl)c3)c3c2CCN(c2ccc4c(c2)C(=O)N(CC(F)(F)F)CCO4)C3=O)n[nH]1` [Example 1378, 1-(3-chlorophenyl)-N-((5-methyl-1H-pyrazol-3-yl)methyl)-7-oxo-6-(5-oxo-4-(2,2,2-trifluoroethyl)-2,3,4,5-tetrahydrobenzo[f][1,4]oxazepin-7-yl)-4,5,6,7-tetrahydro-1H-pyrazolo[3,4-c]pyridine-3-carboxamide]: the values for the IC50 (in assay [1]; at FXa; at Thrombin) were 0.01 to 0.1 µM, 10 to 40 µM and 10 to 40 µM, respectively.

Take `CCNC(=O)c1nn(-c2cccc(Cl)c2)c2c1CCN(c1ccc3c(c1)N(C(C)=O)CC31CC1)C2=O` [Example 1429, 6-(1′-acetylspiro[cyclopropane-1,3′-indolin]-6′-yl)-1-(3-chlorophenyl)-N-ethyl-7-oxo-4,5,6,7-tetrahydro-1H-pyrazolo[3,4-c]pyridine-3-carboxamide]: the IC50 in assay [1] lay in the range of 0.3 to 1 µM. Besides, the activity at 40 µM at FXa and on Thrombin was 20 to 80% throughout.

With `CN1CCc2ccc(N3CCc4c(C(=O)NCC5CC5)nn(-c5cc(Cl)cc(CN)c5)c4C3=O)cc2C1=O` [Example 2018, 1-(3-(aminomethyl)-5-chlorophenyl)-N-(cyclopropylmethyl)-6-(2-methyl-1-oxo-1,2,3,4-tetrahydroisoquinolin-7-yl)-7-oxo-4,5,6,7-tetrahydro-1H-pyrazolo[3,4-c]pyridine-3-carboxamide], the IC50 is 0.01 to 0.1 µM in assay [1], greater than 40 µM on FXa and 10 to 40 µM against Thrombin.

For the compound `CN1CCOc2ccc(N3CCc4c(C(=O)N[C@H](CO)C5CC5)nn(-c5cccc(Cl)c5F)c4C3=O)cc2C1=O` [Example 2053, (S)-1-(3-chloro-2-fluorophenyl)-N-(1-cyclopropyl-2-hydroxyethyl)-6-(4-methyl-5-oxo-2,3,4,5-tetrahydrobenzo[f][1,4]oxazepin-7-yl)-7-oxo-4,5,6,7-tetrahydro-1H-pyrazolo[3,4-c]pyridine-3-carboxamide], the IC50 in assay [1] was in the range of 0.01 to 0.1 µM. The results for the activity at 40 µM at FXa and at Thrombin were 20 to 80% and greater than 80%, respectively.

Consider `CCNC(=O)c1nn(-c2cccc(Cl)c2CO)c2c1CCN(c1ccc3c(c1)C(=O)N(C)CC3)C2=O` [Example 2052, 1-(3-chloro-2-(hydroxymethyl)phenyl)-N-ethyl-6-(2-methyl-1-oxo-1,2,3,4-tetrahydroisoquinolin-7-yl)-7-oxo-4,5,6,7-tetrahydro-1H-pyrazolo[3,4-c]pyridine-3-carboxamide], for which, in assay [1], the IC50 was in the range of 10 to 40 µM. In addition, the activity at 40 µM on FXa and at Thrombin was greater than 80% each time.

With `CCNC(=O)c1nn(-c2cccc(Cl)c2)c2c1CCN(c1cccc(N3CCN(C)CC3=O)c1)C2=O` [Example 1420, 1-(3-chlorophenyl)-N-ethyl-6-(3-(4-methyl-2-oxopiperazin-1-yl)phenyl)-7-oxo-4,5,6,7-tetrahydro-1H-pyrazolo[3,4-c]pyridine-3-carboxamide], the IC50 in assay [1] was 3 to 10 µM. Further, the activity at 40 µM on FXa and on Thrombin was greater than 80% in each case.

For `CCNC(=O)c1nn(-c2ccc(O)c(Cl)c2)c2c1CCN(c1ccc3c(c1)C(=O)N(C)CC3)C2=O` [Example 2054, 1-(3-chloro-4-hydroxyphenyl)-N-ethyl-6-(2-methyl-1-oxo-1,2,3,4-tetrahydroisoquinolin-7-yl)-7-oxo-4,5,6,7-tetrahydro-1H-pyrazolo[3,4-c]pyridine-3-carboxamide], in assay [1], the IC50 was in the range of 3 to 10 µM. Also, the activity at 40 µM on FXa and on Thrombin was greater than 80% throughout.

On to `CCNC(=O)c1nn(-c2cccc(OC)n2)c2c1CCN(c1ccc3c(c1)C(=O)N(C)CC3)C2=O` [Example 2037, N-ethyl-1-(6-methoxypyridin-2-yl)-6-(2-methyl-1-oxo-1,2,3,4-tetrahydroisoquinolin-7-yl)-7-oxo-4,5,6,7-tetrahydro-1H-pyrazolo[3,4-c]pyridine-3-carboxamide], for which the IC50 in assay [1] lay in the range of 10 to 40 µM. Further, the activity at 40 µM on FXa and on Thrombin was greater than 80% throughout.
